Measured values from US11467160B2, “Method of therapy selection for patient suffering from glioblastoma” (INSERM (Institut National de la Santé et de la Recherche …, priority 2017, dated 2022).
Entries after “also recorded” stand apart in the source; their conditions may differ.

Experiments:
[1] = tested on: GBM patients; details: combined with temozolomide (Stupp 2014); cited from earlier work
[2] = tested on: CD90-expressing parental U251 cells; test: Boyden chamber migration assay, parental U251 cells; assay type: cell-based, human; details: for U251 cell migration: 10 μM inhibitor, 15 minutes pre-incubation, kept during 24-hours Boyden chamber assay
Method: (§1) FIG. 3: CD90 signals through SRC, FAK and RhoA molecules and CD90 dependent migration is blocked by dasatinib in vitro and in vivo. Parental (wt), control (shCTR #), CD90-down expressing (shCD90 #, n=3) U251 cells; as well as parental (wt), control (CTR #) and CD90 expressing (CD90 #, n=3) U87 cells were cultured at low cell density, lysed and analyzed by Western-blot for phosphoSRC, SRC, phosphoFAK, FAK and β-actin expression. Protein phosphorylation levels were calculated as described in Materials and Methods part (A). CD90low (black) and CD90high (blank) RNS (n=12, square symbol) and RADH (n=6, circle symbol) cells were analyzed by Western-blot for phosphoSRC, SRC, phosphoFAK, FAK and β-actin expression. Protein phosphorylation levels were calculated in (B). CD90-expressing parental U251 and CD90 #1 U87 cells were tested in a 24-hours Boyden chamber migration assay as described in FIG. 2 in the presence of DMSO (as control), PP2, dasatinib (both SRC inhibitors), Y15 (FAK inhibitor) and Y-27632 (ROCK inhibitor) (C). CD90-expressing parental U251 and CD90 #1 U87 cells were transfected without (siØ), with siRNA GL2 (control) or siRNA RhoA during 48 hours, and tested in a 24-hours Boyden chamber migration assay (D). RhoA expression was tested by Western-blot (D). Migration was given by the number of migrated cells obtained per field (C and D). CD90high RNS (n=4, square symbol) and RADH (n=4, circle symbol) cells were tested in a 24-hours Boyden chamber migration assay in the presence of DMSO or dasatinib (E). Representative fields are shown in (E). CD90 expressing U87 cells were orthotopically implanted in immunocompromised mice brain. One week after injection, mice were fed with control vehicle (n=7) or dasatinib (40 mg/kg/day, n=7) for 20 days. Control and dasatinib-treated mice were sacrificed 28 days after injection. Brains were collected and sections were analyzed after H&E staining (F). (*): p<0.05; (**): p<0.01; (***): p<0.001.
Boyden chamber migration assay—Parental, controls and transfected U251 and U87 cell lines were washed in DMEM, placed in Boyden chambers (10^5 cells/chamber in DMEM) that were placed in DMEM 20% FBS and incubated at 37° C. for 24 hours. After 24 hours, Boyden chambers were washed in PBS and cells were fixed in PBS 0.5% paraformaldehyde. Non-migrated cells inside the chambers were removed and cells were then stained with Giemsa (RAL Diagnostics, Martillac, France). After washes in PBS, pictures of 5 different fields were taken. Migration was given by the mean of number of migrated cells observed per field. […]

[3] = tested on: U87 CD90 cells; test: Boyden chamber migration assay, U87 CD90 cells; assay type: cell-based, human; details: for U87 CD90 cell migration: 10 μM inhibitor, 15 minutes pre-incubation, kept during 24-hours Boyden chamber assay
Method: as §1
Preparation of CD90 knocked-down U251 and CD90 expressing U87 GBM cell lines—U251 cells were transfected with pLKO.1-puro plasmids containing shRNA constructs targeting CD90 mRNA and targeting non-mammalian mRNA (Sigma-Aldrich) using the Lipofectamine 2000 reagent (Life Technologies, St Aubin, France) according to the manufactor's instructions. After one week of culture under the selective antibiotic puromycin used at 10 μg/ml, transfected U251 cells were amplified and then cloned in 96-well plates at 0.1 cell/well. CD90 knocked-down U251 cell lines were expanded and selected for their decreased expression of CD90. U87 cells were transfected with CD90 cDNA (GeneWiz, Sigma-Aldrich) cloned into the pLKO.1-puro plasmid with EcoRI and BamHI enzymes using the Lipofectamine 2000 reagent. […]

[4] = tested on: primary CD90high GBM lines; test: Boyden chamber migration assay, primary CD90high GBM lines (RNS and RADH); assay type: cell-based, human; details: CD90high RNS (n=4) and RADH (n=4) cells, 24-hours Boyden chamber assay
Method: FIG. 3: CD90 signals through SRC, FAK and RhoA molecules and CD90 dependent migration is blocked by dasatinib in vitro and in vivo. Parental (wt), control (shCTR #), CD90-down expressing (shCD90 #, n=3) U251 cells; as well as parental (wt), control (CTR #) and CD90 expressing (CD90 #, n=3) U87 cells were cultured at low cell density, lysed and analyzed by Western-blot for phosphoSRC, SRC, phosphoFAK, FAK and β-actin expression. Protein phosphorylation levels were calculated as described in Materials and Methods part (A). CD90low (black) and CD90high (blank) RNS (n=12, square symbol) and RADH (n=6, circle symbol) cells were analyzed by Western-blot for phosphoSRC, SRC, phosphoFAK, FAK and β-actin expression. Protein phosphorylation levels were calculated in (B). […] Brains were collected and sections were analyzed after H&E staining (F). […]
Tumor specimens and cell culture—GBM samples were obtained after informed consent from patients admitted to the neurosurgery department at Rennes University Hospital for surgical resection in accordance with the local ethic committee. […] The extent of surgery was evaluated with an enhanced magnetic resonance imaging (MRI) performed within 24 hours after the resection. […]

[5] = tested on: U87 CD90 cells; test: Orthotopic xenograft mouse model with U87 CD90 cells; assay type: in vivo, mice
Method: as §1, with “CD90high RNS (n=4, square symbol) and RADH (n=4, circle symbol) cells were tested in a 24-hours Boyden chamber migration assay in the presence of DMSO or dasatinib (E). Representative fields are shown in (E). CD90 expressing U87 cells were orthotopically implanted in immunocompromised mice brain. One week after injection, mice were fed with control vehicle (n=7) or dasatinib (40 mg/kg/day, n=7) for 20 days. Control and dasatinib-treated mice were sacrificed 28 days after injection.” left out, “(*): p<0.05; (**): p<0.01; (***): p<0.001.” left out
Orthotopic mouse model—Eight-weeks old male Balb/c NOD-SCID mice (Janvier, Saint Berthevin, France) were housed in an animal care unit authorized by the French Ministries of Agriculture and Research (Biosit, Rennes, France—Agreement No. B35-238-40). […] Mice were daily clinically monitored and sacrificed 28 days after implantation. […] Tumor burden was compared in the different groups of mice and analyzed using ImageJ software. […]
To evaluate the CD90-dependent effects of dasatinib in vivo, U87 CD90 cells were used in an orthotopic xenograft mouse model. […] Mice were analyzed using MRI 28 days post-injection and were sacrificed. […]

[6] = tested on: CD90high RNS cells; test: Viability of CD90high RNS cells; assay type: cell-based, human
[7] = tested on: bevacizumab-treated recurrent GBM patients; details: phase II trial (Lassman 2015); cited from earlier work
[8] = tested on: glioma cell invasion; details: preclinical phase; cited from earlier work
[9] = tested on: recurrent GBM patients; details: Phase II, with temozolomide (Groves 2002); cited from earlier work
[10] = tested on: GBM patients; details: phase III clinical trial (Levin 2006); cited from earlier work
[11] = 1 μM, 24-hours Boyden chamber assay
[12] = dasatinib 40 mg/kg fed daily for 20 days from one week post-implantation, 28 days post-injection

## CC(C)[C@H]1C(=O)N[C@@H](CCCN=C(N)N)C(=O)NCC(=O)N[C@@H](CC(=O)O)C(=O)N[C@H](Cc2ccccc2)C(=O)N1C [Cilengitide]
[1]
  Effects on GBM patients: limited effects

## CC(C)(C)n1nc(-c2ccc(Cl)cc2)c2c(N)ncnc21 [PP2]
[2]
  U251 cell migration: dramatically reduced
[3]
  U87 CD90 cell migration: dramatically reduced

## Cl.Cl.Cl.Cl.Nc1cc(N)c(N)cc1N [Y15]
[2]; [11]
  Effect on the migration of U251 cells: no or limited effect
[3]; [11]
  Effect on the migration of U87 CD90 cells: no or limited effect

## C[C@@H](N)[C@H]1CC[C@H](C(=O)Nc2ccncc2)CC1 [Y27632]
[2]; Homo sapiens, U-251, U251 cells, 10 μM, 24-hours Boyden chamber assay, read-out: Migration inhibition (reduction)
  inhibition at 10 µM: 53%
[3]; Homo sapiens, U87 CD90 cells, 10 μM, 24-hours Boyden chamber assay, read-out: Migration inhibition (reduction)
  inhibition at 10 µM: 76%

## Cc1nc(Nc2ncc(C(=O)Nc3c(C)cccc3Cl)s2)cc(N2CCN(CCO)CC2)n1 [dasatinib, N-(2-chloro-6-methylphenyl)-2-[[6-[4-(2-hydroxyethyl)piperazin-1-yl]-2-methylpyrimidin-4-yl]amino]-1,3-thiazole-5-carboxamide]
[2]
  U251 cell migration: dramatically reduced
[3]
  U87 CD90 cell migration: dramatically reduced
[4]
  Migration of primary CD90high GBM lines: dramatically reduced
[5]; U87 CD90 orthotopic xenograft, dasatinib 40 mg/kg
  CD90 tumor migration/invasion properties in vivo: dramatically reduces; also recorded: blocks; also recorded: inhibits
[5]; [12]
  Mice with clear encapsulated tumors with regular edges, H&E staining: 4 out of 7
  Mice with clear encapsulated tumors with regular edges, MRI: 3 out of 4
[6]
  Viability of CD90high RNS cells: affects viability
[7]
  Improvement of bevacizumab-treated recurrent GBM patients: failed to improve
[8]
  Inhibiting bevacizumab-induced glioma cell invasion: promising effect

## CNC(=O)[C@@H](NC(=O)[C@H](CC(C)C)[C@H](O)C(=O)NO)C(C)(C)C [marimastat]
[9]
  Effects on recurrent GBM patients: encouraging effects
[10]
  Patient survival: failed to improve
